# Source: patent US20260285850A1, “SUBSTITUTED OXAZOLIDINONES AND IMIDAZOLINONES AS HERBICIDES” (FMC CORPORATION, priority 2023, published 2026)
# Columns and labels:
# Type in all cases: in vivo
# [1] = test system: oat, wild (wild oat, Avena fatua); assay: Test A postemergence application, visual injury rating 0-100
# Summary of the method: (§1)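 Compound in a non-phytotoxic, surfactant-containing solvent is applied either as a directed soil spray before seedlings emerge or onto emerged plants 2-10 cm tall; pots hold a loam-sand blend. Plants grow 10 days under greenhouse conditions and are rated by eye against untreated controls (0 no effect, 100 complete control).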
# [2] = test system: galium (catchweed bedstraw, Galium aparine); assay: as above; details: Postemergence, 16 g ai/ha, greenhouse 10 days; 0 no effect, 100 complete control
# Summary of the method: as §1
# [3] = test system: barnyardgrass (Echinochloa crus-galli); assay: as above
# Summary of the method: as §1
# [4] = test system: horseweed (Erigeron canadensis); assay: as above
# Summary of the method: as §1
# soybean (Glycine max) [5] = assay: as above
# Summary of the method: as §1
# [6] = test system: ryegrass, Italian (italian ryegrass, Lolium multiflorum); assay: as above
# Summary of the method: as §1
# [7] = test system: blackgrass (Alopecurus myosuroides); assay: as above
# Summary of the method: as §1
# [8] = test system: ragweed (common ragweed, Ambrosia artemisiifolia); assay: as above
# Summary of the method: as §1
# corn (Zea mays) [9] = assay: as above
# Summary of the method: as §1
# kochia (Bassia scoparia) [10] = assay: as above
# Summary of the method: as §1
# [11] = test system: palmer (palmer amaranth, palmer pigweed, Amaranthus palmeri); assay: as above
# Summary of the method: as §1
# [12] = test system: green foxtail (Setaria viridis); assay: as above
# Summary of the method: as §1
# [13] = test system: wheat (Triticum aestivum); assay: as above
# Summary of the method: as §1
# [14] = test system: oat, wild (wild oat, Avena fatua); assay: Test A preemergence soil spray, visual injury rating 0-100; details: 10 days
# Summary of the method: as §1
# [15] = test system: barnyardgrass (Echinochloa crus-galli); assay: as above; details: 10 days
# Summary of the method: as §1
# soybean (Glycine max) [16] = assay: as above; details: 10 days
# Summary of the method: as §1
# [17] = test system: ryegrass, Italian (italian ryegrass, Lolium multiflorum); assay: as above; details: 10 days
# Summary of the method: as §1
# [18] = test system: blackgrass (Alopecurus myosuroides); assay: as above; details: 10 days
# Summary of the method: as §1
# [19] = test system: ragweed (common ragweed, Ambrosia artemisiifolia); assay: as above; details: 10 days
# Summary of the method: as §1
# corn (Zea mays) [20] = assay: as above; details: 10 days
# Summary of the method: as §1
# kochia (Bassia scoparia) [21] = assay: as above; details: 10 days
# Summary of the method: as §1
# [22] = test system: palmer (palmer amaranth, palmer pigweed, Amaranthus palmeri); assay: as above; details: 10 days
# Summary of the method: as §1
# [23] = test system: green foxtail (Setaria viridis); assay: as above; details: 10 days
# Summary of the method: as §1
# [24] = test system: wheat (Triticum aestivum); assay: as above; details: 10 days
# Summary of the method: as §1
# rice (Oryza sativa) = assay: Test B flooded paddy test, visual plant response rating 0-100; details: 250 g ai/ha, Flood, applied to paddy water, evaluated after 13 days
# Summary of the method: (§2)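 Plants were grown to the 2-leaf stage, then pots were flooded to 3 cm above the soil and compound was applied directly to the paddy water, with that depth kept throughout.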
# [25] = test system: ducksalad (Heteranthera limosa); assay: as above; details: 250 g ai/ha, Flood, applied to paddy water, evaluated after 13 days
# Summary of the method: as §2
# [26] = test system: sedge, umbrella (small-flower umbrella sedge, Cyperus difformis); assay: as above; details: 250 g ai/ha, Flood, applied to paddy water, evaluated after 13 days
# Summary of the method: as §2
# [27] = test system: barnyardgrass (Echinochloa crusgalli); assay: as above; details: 250 g ai/ha, Flood, applied to paddy water, evaluated after 13 days
# Summary of the method: as §2
# [28] = 62 g ai/ha, postemergence, 10 days, 0 = no effect, 100 = complete control
# [29] = Postemergence, 16 g ai/ha, greenhouse 10 days, 0 no effect, 100 complete control
# [30] = 62 g ai/ha, 0 = no effect, 100 = complete control
smiles,measurement,setting,value
CC1(C(=O)NC2CC=C(C(=O)OCC(F)F)C2)CN(c2cc(F)cc(F)c2)C(=O)O1 (stereo not drawn) [Compound 151],"Oat, Wild plant response rating (0-100)",[1]; [28],0
same,"Oat, Wild plant response rating (0 to 100 scale)",[1]; [29],0
same,Galium plant response rating (0 to 100 scale),[2],0
same,Barnyardgrass plant response rating (0-100),[3]; [28],20
same,Barnyardgrass plant response rating (0 to 100 scale),[3]; [29],0
same,Horseweed plant response rating (0-100),[4]; [28],0
same,Horseweed plant response rating (0 to 100 scale),[4]; [29],0
same,Soybean plant response rating (0-100),soybean (Glycine max) [5]; [28],0
same,Soybean plant response rating (0 to 100 scale),soybean (Glycine max) [5]; [29],0
same,"Ryegrass, Italian plant response rating (0-100)",[6]; [28],0
same,"Ryegrass, Italian plant response rating (0 to 100 scale)",[6]; [29],0
same,Blackgrass plant response rating (0-100),[7]; [28],0
same,Blackgrass plant response rating (0 to 100 scale),[7]; [29],0
same,Ragweed plant response rating (0-100),[8]; [28],0
same,Ragweed plant response rating (0 to 100 scale),[8]; [29],0
same,Corn plant response rating (0-100),corn (Zea mays) [9]; [28],0
same,Corn plant response rating (0 to 100 scale),corn (Zea mays) [9]; [29],0
same,Kochia plant response rating (0-100),kochia (Bassia scoparia) [10]; [28],0
same,Kochia plant response rating (0 to 100 scale),kochia (Bassia scoparia) [10]; [29],0
same,"Pigweed, Palmer plant response rating (0-100)",[11]; [28],0
same,"Pigweed, Palmer plant response rating (0 to 100 scale)",[11]; [29],0
same,"Foxtail, Green plant response rating (0-100)",[12]; [28],0
same,"Foxtail, Green plant response rating (0 to 100 scale)",[12]; [29],0
same,Wheat plant response rating (0-100),[13]; [28],0
same,Wheat plant response rating (0 to 100 scale),[13]; [29],0
same,"Oat, Wild plant response rating","[14]; 16 g ai/ha, 0 to 100 scale",0
same,"Oat, Wild plant response rating (0-100)",[14]; [30],0
same,Barnyardgrass plant response rating,"[15]; 16 g ai/ha, 0 to 100 scale",0
same,Barnyardgrass plant response rating (0-100),[15]; [30],0
same,Soybean plant response rating,"soybean (Glycine max) [16]; 16 g ai/ha, 0 to 100 scale",0
same,Soybean plant response rating (0-100),soybean (Glycine max) [16]; [30],0
same,"Ryegrass, Italian plant response rating","[17]; 16 g ai/ha, 0 to 100 scale",0
same,"Ryegrass, Italian plant response rating (0-100)",[17]; [30],0
same,Blackgrass plant response rating,"[18]; 16 g ai/ha, 0 to 100 scale",0
same,Blackgrass plant response rating (0-100),[18]; [30],0
same,Ragweed plant response rating,"[19]; 16 g ai/ha, 0 to 100 scale",0
same,Ragweed plant response rating (0-100),[19]; [30],0
same,Corn plant response rating,"corn (Zea mays) [20]; 16 g ai/ha, 0 to 100 scale",0
same,Corn plant response rating (0-100),corn (Zea mays) [20]; [30],0
same,Kochia plant response rating,"kochia (Bassia scoparia) [21]; 16 g ai/ha, 0 to 100 scale",0
same,Kochia plant response rating (0-100),kochia (Bassia scoparia) [21]; [30],0
same,"Pigweed, Palmer plant response rating","[22]; 16 g ai/ha, 0 to 100 scale",0
same,"Pigweed, Palmer plant response rating (0-100)",[22]; [30],0
same,"Foxtail, Green plant response rating","[23]; 16 g ai/ha, 0 to 100 scale",0
same,"Foxtail, Green plant response rating (0-100)",[23]; [30],0
same,Wheat plant response rating,"[24]; 16 g ai/ha, 0 to 100 scale",0
same,Wheat plant response rating (0-100),[24]; [30],0
same,"Plant response rating, Rice (0 to 100 scale, 0 is no effect and 100 is complete control)",rice (Oryza sativa),0
same,"Plant response rating, Ducksalad (0 to 100 scale, 0 is no effect and 100 is complete control)",[25],0
same,"Plant response rating, Sedge, Umbrella (0 to 100 scale, 0 is no effect and 100 is complete control)",[26],0
same,"Plant response rating, Barnyardgrass (0 to 100 scale, 0 is no effect and 100 is complete control)",[27],0
